The supplement of paper PMC4932681

Legend:
[1] = tested on: ZR-75-1 Tam1; assay: relative IC50 (midpoint of fitted logistic curve, plateau may be below 50% inhibition; CellTiter-Glo viability); higher = less potent; details: 4-OH-tamoxifen in medium 1 µM; 72 h
Procedure: (§1)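 FIMM FO2B library drugs were plated at 5 concentrations spanning a 10,000-fold range in 384-well plates. Cells were incubated for 72 h at 37 °C and viability was read by CellTiter-Glo, normalised to DMSO (0% inhibition) and 100 µM benzethonium chloride (100% inhibition). IC50 values come from logistic dose-response fits (Breeze pipeline). Tamoxifen-resistant lines and the 'in 1µM tamoxifen' parental arms were tested in medium with 1 µM 4-OH-tamoxifen.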

[2] = tested on: BT-474 Tam2; assay: as above; details: 4-OH-tamoxifen in medium 1 µM; 72 h
Procedure: as §1

[3] = tested on: BT-474 Tam1; assay: as above; details: 4-OH-tamoxifen in medium 1 µM; 72 h
Procedure: as §1

[4] = tested on: T-47D; assay: as above; details: 72 h
Procedure: as §1

[5] = tested on: ZR-75-1; assay: as above; details: 72 h
Procedure: as §1

[6] = tested on: BT-474; assay: as above; details: 72 h
Procedure: as §1

[7] = tested on: ZR-75-1 Tam1; assay: drug sensitivity score (DSS) (DSS (dimensionless)); higher = more sensitive; extreme values may be limits of the assay; details: 4-OH-tamoxifen in medium 1 µM; 72 h
Procedure: (§2)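 FIMM FO2B library drugs were tested at 5 concentrations (10,000-fold range) for 72 h, with CellTiter-Glo viability normalised to DMSO and benzethonium chloride controls. The Drug Sensitivity Score (DSS) is computed from the fitted logistic dose-response curve (area-based; 0 = inactive). Resistant lines and the 'in 1µM tamoxifen' arms were tested in 1 µM 4-OH-tamoxifen.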

[8] = tested on: BT-474 Tam2; assay: as above; details: 4-OH-tamoxifen in medium 1 µM; 72 h
Procedure: as §2

[9] = tested on: BT-474 Tam1; assay: as above; details: 4-OH-tamoxifen in medium 1 µM; 72 h
Procedure: as §2

[10] = tested on: T-47D; assay: as above; details: 72 h
Procedure: as §2

[11] = tested on: ZR-75-1 Tam2; assay: as above; details: 4-OH-tamoxifen in medium 1 µM; 72 h
Procedure: as §2

[12] = tested on: MCF-7 Tam1; assay: as above; details: 4-OH-tamoxifen in medium 1 µM; 72 h
Procedure: as §2

[13] = tested on: ZR-75-1; assay: as above; details: 72 h
Procedure: as §2

[14] = tested on: BT-474; assay: as above; details: 72 h
Procedure: as §2

[15] = tested on: T-47D Tam2; assay: as above; details: 4-OH-tamoxifen in medium 1 µM; 72 h
Procedure: as §2

[16] = tested on: T-47D Tam1; assay: as above; details: 4-OH-tamoxifen in medium 1 µM; 72 h
Procedure: as §2

[17] = tested on: MCF-7; assay: as above; details: 72 h
Procedure: as §2

[18] = tested on: MCF-7; assay: relative IC50 (midpoint of fitted logistic curve, plateau may be below 50% inhibition; CellTiter-Glo viability); higher = less potent; details: 72 h
Procedure: as §1

[19] = tested on: ZR-75-1 Tam2; assay: as above; details: 4-OH-tamoxifen in medium 1 µM; 72 h
Procedure: as §1

| relative IC50 [2] | relative IC50 [3] | relative IC50 ([4]; 4-OH-tamoxifen in medium 0 µM) | relative IC50 ([4]; 4-OH-tamoxifen in medium 1 µM) | relative IC50 ([6]; 4-OH-tamoxifen in medium 0 µM) | relative IC50 ([6]; 4-OH-tamoxifen in medium 1 µM) | relative IC50 ([18]; 4-OH-tamoxifen in medium 0 µM) | relative IC50 ([18]; 4-OH-tamoxifen in medium 1 µM) | SMILES | relative IC50 [1] | relative IC50 ([5]; 4-OH-tamoxifen in medium 0 µM) | drug sensitivity score [7] | drug sensitivity score [8] | drug sensitivity score [9] | drug sensitivity score ([10]; 4-OH-tamoxifen in medium 0 µM) | drug sensitivity score ([10]; 4-OH-tamoxifen in medium 1 µM) | drug sensitivity score [11] | drug sensitivity score [12] | drug sensitivity score ([13]; 4-OH-tamoxifen in medium 0 µM) | drug sensitivity score ([13]; 4-OH-tamoxifen in medium 1 µM) | drug sensitivity score ([14]; 4-OH-tamoxifen in medium 0 µM) | drug sensitivity score ([14]; 4-OH-tamoxifen in medium 1 µM) | drug sensitivity score [15] | drug sensitivity score [16] | drug sensitivity score ([17]; 4-OH-tamoxifen in medium 0 µM) | drug sensitivity score ([17]; 4-OH-tamoxifen in medium 1 µM) | relative IC50 ([5]; 4-OH-tamoxifen in medium 1 µM) | relative IC50 [19] |
| --- | --- | --- | --- | --- | --- | --- | --- | --- | --- | --- | --- | --- | --- | --- | --- | --- | --- | --- | --- | --- | --- | --- | --- | --- | --- | --- | --- |
| > 10 µM | > 10 µM | > 10 µM | > 10 µM | > 10 µM |  |  |  | S=c1[nH]cnc2nc[nH]c12 [Mercaptopurine] | 1.27 µM | 1.17 µM | 3.2 | 0 | 0 | 0 | 0 | 1.17 | 0.313 | 3.86 | 0 | 0 | 1.43 | 0 | 0.0158 | 0.509 | 2.88 |  |  |
| 3.91 µM | 3.12 µM |  |  | 3.57 µM | 3.67 µM |  |  | COc1cc2nccc(Oc3ccc(NC(=O)Nc4cc(C)on4)c(Cl)c3)c2cc1OC [Tivozanib  (AV-951)] | > 10 µM |  | 0 | 1.74 | 4.02 | 0.499 | 0.378 | 0 | 0.0468 | 0.0461 | 0 | 1.25 | 3.61 | 0.444 | 0.968 | 0.0979 | 0.0672 | > 10 µM |  |
|  | 3.25 µM | 2.77 µM |  |  | 1.65 µM | 3.32 µM | 1.48 µM | CNC(=O)c1ccccc1Sc1ccc2c(/C=C/c3ccccn3)n[nH]c2c1 [Axitinib] | > 10 µM | > 10 µM | 0 | 1.5 | 2.01 | 2.18 | 0.979 | 1.49 | 1.84 | 0 | 0.656 | 0.518 | 3.56 | 0.968 | 1.41 | 1.43 | 2.88 |  |  |
|  | 0.314 µM |  |  | > 1 µM | 0.404 µM |  |  | COc1cc2c(Oc3ccc(NC(=O)C4(C(=O)Nc5ccc(F)cc5)CC4)cc3F)ccnc2cc1OCCCN1CCOCC1 [Foretinib (Foretinib)] |  | > 1 µM | 0 | 0.0003 | 1.42 | 0.41 | 0.227 | 0.585 | 1.72 | 0 | 0 | 0 | 1.73 | 1.36 | 0.595 | 0.867 | 0.0297 |  |  |
| 1.41 µM | 2.79 µM | > 10 µM | > 10 µM | > 10 µM | 3.13 µM |  | 1.23 µM | C=CC[C@@H]1/C=C(\C)C[C@H](C)C[C@H](OC)[C@H]2O[C@@](O)(C(=O)C(=O)N3CCCC[C@H]3C(=O)O[C@H](/C(C)=C/[C@@H]3CC[C@@H](O)[C@H](OC)C3)[C@H](C)[C@@H](O)CC1=O)[C@H](C)C[C@@H]2OC [Tacrolimus (FK 506)] |  | > 10 µM | 0.336 | 2.96 | 2.73 | 0 | 0 | 0.01 | 1.18 | 0 | 0.622 | 0 | 1.97 | 0.788 | 2.72 | 0.766 | 3.51 |  |  |
| > 10 µM |  |  | > 10 µM |  | > 10 µM | 1.16 µM |  | CC(=O)c1c(C)c2cnc(Nc3ccc(N4CCNCC4)cn3)nc2n(C2CCCC2)c1=O |  | > 10 µM | 1.11 | 0 | 0 | 2.46 | 0 | 1.63 | 0.967 | 0 | 0.745 | 0 | 0 | 1.34 | 2.49 | 3.32 | 3.28 |  |  |
| 3.9 µM | 3.22 µM |  | > 10 µM | > 10 µM | 3.98 µM | 3.72 µM |  | c1ccc2c(CCNc3ccc(Nc4ccncc4)cc3)c[nH]c2c1 |  |  | 0.823 | 1.44 | 5.04 | 0.192 | 0 | 1.69 | 0.0212 | 0.0538 | 0.973 | 0 | 3.42 | 0.542 | 0.685 | 2.88 | 0.416 |  | 2.76 µM |
